The subject of series [1] is MCF-7 breast carcinoma cells. The series can be described thus: Sulforhodamine B cytotoxicity, MCF-7. The following applies: Homo sapiens, MCF7, MCF-7; read-out: IC50. Type of series: cell-based. As for the experimental part: (§1) In addition to the screening already discussed, several of the before-described compounds and chimeras were screened against several or all of a panel of ten to twenty-five cancerous cell lines as target cells and seven "normal" cell preparations. This screening utilized a sulforhodamine B cytotoxidity assay as discussed below.
(§2) IC50 values; i.e., the concentration of Compound required to kill one-half of the treated cells, were then calculated.

The next series relates to SK-Mel-28 melanoma cells. The series can be described thus: Sulforhodamine B cytotoxicity, SK-Mel-28. Type of series: cell-based. The following applies: Homo sapiens, SK-MEL-28, SK-Mel-28; read-out: IC50. As for the experimental part:
as §1, §2

For series [2], the system named is HMEC human mammary epithelial cells. The series can be described thus: Sulforhodamine B cytotoxicity, HMEC. Type of series: cell-based. The settings on record: Homo sapiens, normal cells. As for the experimental part: as §1, §2
HMEC Human mammary epithelial cells

Series [3] relates to MOLT-4 (Leukemia) cell line. The series can be described thus: cells. Type of series: cell-based. The settings on record: Homo sapiens, MOLT-4, Molt-4 leukemia cell line; read-out: IC50. Put shortly:
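Values given are IC50s, defined as the compound concentration at which half the treated cells were killed in a sulforhodamine B assay. The panel screened comprised ten to twenty-five tumour lines and seven normal cell preparations.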

Series [4] concerns NHDF normal human dermal fibroblasts. The series can be described thus: cells. Type of series: cell-based. The following applies: NHDF. As for the experimental part: as §1, §2
NHDF Normal human dermal fibroblasts

The subject of series [5] is SIHA cervical carcinoma cells. The series can be described thus: Sulforhodamine B cytotoxicity, SIHA. Type of series: cell-based. The following applies: Homo sapiens. As for the experimental part:
as §1, §2

In series [6] the test system is PC-3 prostate carcinoma cells. The series can be described thus: Sulforhodamine B cytotoxicity, PC-3. Type of series: cell-based. The settings on record: Homo sapiens. Here is the method: as §1, §2
Series [7] deals with CHO Chinese hamster ovary cells. The series can be described thus: Sulforhodamine B cytotoxicity, CHO. Type of series: cell-based. The settings on record: Cricetulus griseus; CHO, normal cells. Here is the method:
as §1, §2

A short description of the next series: Water solubility. Type of series: physicochemical.
For series [8], the system named is H-322 lung carcinoma cells. The series can be described thus: Sulforhodamine B cytotoxicity, H-322. Type of series: cell-based. The following applies: NCI-H322; H-322; read-out: IC50. As for the experimental part: as §1, §2
In series [9] the test system is Capan-1 pancreatic carcinoma cells. The series can be described thus: Sulforhodamine B cytotoxicity, Capan-1. The following applies: Homo sapiens, CAPAN-1, Capan-1; read-out: IC50. Type of series: cell-based. Here is the method: as §1, §2
The subject of series [10] is HL-60 promyeocytic leukemia cells. The series can be described thus: Sulforhodamine B cytotoxicity, HL-60. Type of series: cell-based. The settings on record: Homo sapiens, HL-60, HL-60; read-out: IC50. As for the experimental part:
as §1, §2

Series [11] has as its system Ovcar-3 ovarian carcinoma cells. The series can be described thus: Sulforhodamine B cytotoxicity, Ovcar-3. Type of series: cell-based. The settings on record: Homo sapiens, OVCAR-3, Ovcar-3; read-out: IC50. As for the experimental part: as §1, §2
Series [12] concerns HT-29 colon carcinoma cells. The series can be described thus: Sulforhodamine B cytotoxicity, HT-29. The settings on record: Homo sapiens, HT-29, colon carcinoma H-29 (Table 4) / HT-29 (Table 5); read-out: IC50. Type of series: cell-based. As for the experimental part: as §1, §2
Series [13] relates to NHEK normal human epidermal keratinocytes. The series can be described thus: Sulforhodamine B cytotoxicity, NHEK. Type of series: cell-based. The following applies: normal cells. Here is the method:
as §1, §2
NHEK Normal human epidermal keratinocytes

Series [14] has as its system MCF-7(ADR) breast carcinoma cells. The series can be described thus: Sulforhodamine B cytotoxicity, MCF-7/ADR. The following applies: Homo sapiens, NCI/ADR-RES, Adriamycin resistant. Type of series: cell-based. As for the experimental part:
as §1, §2

The test system of the next series is cancer cell lines. The series can be described thus: cells. Type of series: cell-based. The settings on record: Average data obtained from 5~10 cell lines; read-out: IC50 (average).
Series [15] deals with MB49 murine bladder carcinoma cells. The series can be described thus: 6-well cytotoxicity assay, MB49. Type of series: cell-based. The following applies: MB-49. As for the experimental part: MIA PaCa-2 cells, MB-49, CV-1 or WI-38 cells were loaded into each well of a 6-well plate at a density of 100,000 cells/well in 3 ml culture medium. They were incubated for 4 hours (37° C., 7 percent CO2). Then 6 microliters of solution containing a compound to be assayed were added into 3 ml of medium (RPMI-1640, with 5 percent fetal bovine serum and 1 percent glutamine) in a 500X dilution so that in one well ethanol was added to make a 0.2 percent ethanol control. The plates were then incubated for 4 days (37° C., 7 percent CO2). The medium was then drained, crystal violet dye (Hucker formula) was added to cover the well bottoms and then they were rinsed with tap water until rinses were clear. The stained cells were solubilized for quantitation with Sarkosyl solution (N-Lauryl sarcosine, 1 percent in water) at 3 ml/well. The absorbance of the solution was then read at 590-650 nm.

For series [16] the following is noted: mice, comparison value; cited from earlier work.
A further series relates to φX174 Form I DNA. The settings on record: literature; cited from earlier work.

“Also recorded” adds a separate entry of the source.

Usually IC50 stands for the concentration that gives 50% inhibition. By LD50 is commonly meant the dose at which mortality reaches 50%.

In the case of `C[N+](C)(C)CC(=O)OCCOc1ccc2c(c1)[C@@]13O[C@]14CCC[C@H]3C#C/C=C\C#C[C@@H]4N2C(=O)OCCS(=O)(=O)c1ccccc1` (relative stereo) [Compound 250], the IC50 in [1] was over 0.098 µM; in the series with SK-Mel-28 melanoma cells, 3.1 µM; in series [2] it was 3.1 µM; in series [3], about 100 µM; in [4] (Homo sapiens, normal cells, read-out: IC50), 6.3 µM; in series [5] it was over 0.098 µM. Further, the IC50 was 1.6 µM in [6]; 0.098 µM in series [7]; 13 µM in series [8]; over 0.098 µM in series [9]; over 0.098 µM in series [10]; over 0.098 µM in series [11]. Moreover, the IC50 in series [12] is 0.19 µM; in [13], 1.6 µM; in [14], 0.19 µM. For the same compound, the water solubility result in “Water solubility” is “enhanced water solubility as compared to Compound 153; also recorded: more water soluble derivative of Compound 153”.
With `O=C(Oc1ccccc1)N1c2ccccc2C23OC24CCCC3(O)C#C/C=C\C#CC14` (stereo not drawn) [Compound 2], the IC50 in the series on cancer cell lines came out at 6.3 µM. Besides, in [15], the anti-tumor cell activity entry is recorded as “more active against the cancerous MB-49 cells than against non-transformed CV-1 African green monkey kidney cells (ATCC CCL 70) or WI-38 human lung cells”.
Regarding `CCN[C@H]1CO[C@@H](O[C@H]2[C@H](O[C@H]3C#C/C=C\C#C[C@]4(O)CC(=O)C(NC(=O)OC)=C3/C4=C\CSSSC)O[C@H](C)[C@@H](NO[C@H]3C[C@H](O)[C@H](SC(=O)c4c(C)c(I)c(O[C@@H]5O[C@@H](C)[C@H](O)[C@@H](OC)[C@H]5O)c(OC)c4OC)[C@@H](C)O3)[C@@H]2O)C[C@@H]1OC` [Calicheamicin], the IC50 in series [4] (control drugs, read-out: Range of Average IC50 Values, NHDF) stood at 0.0025 µM. For the same compound, the LD50 in [16] is 5 µg/kg. Also, the “DNA cleavage sequence specificity” value with φX174 Form I DNA is “double DNA strand cuts at specific sequences”.
